A melting point compilation (Tetko et al.; mined from patent text by program, amines drawn as free bases though some values may be those of a salt)

Work on `COC(=O)OC(C)OC1=C(C(=O)Nc2ccccn2)N(C)S(=O)(=O)c2ccccc21` (configuration not stated) yielded a melting point of 150 to 151 °C. `Cn1c2c(c3ccccc31)CCNC2` gave a melting point of over 250 °C. Work on `CCOc1ccc(C(C)=O)cc1S(=O)(=O)NC(=O)Nc1nc(OC)cc(OC)n1` yielded a melting point of 192 to 193 °C. For `CC(C)C(c1ccc(NC(=O)CC(=O)c2ccccc2)c([N+](=O)[O-])c1)n1ccnc1` (configuration not stated), the melting point was 106 °C. Compound `CS(=O)(=O)N(Cc1ccc(Cl)cc1)CC(O)(Cn1cncn1)c1ccc(Cl)cc1Cl` (configuration not stated) has a melting point of 121 to 122 °C. With `CS(=O)(=O)c1sc(S(N)(=O)=O)cc1CCO` the melting point was 120 to 124 °C. `COC=C(C(=O)OC)C1=C(C=Cc2ccccc2)CCC1` showed a melting point of 107 °C. Compound `COc1cc2c(cc1O)CCN(C(=O)c1ccc(OC)c(OC)c1)C2` has a melting point of 132 to 133 °C. Compound `COc1ccc2c(c1OC)C1=NCCN1C1C(c3ccccc3)CCN21` (configuration not stated) has a melting point of 171 °C. In the case of `Cc1cc2c(cc1C(C)SCC(=O)O)OCO2` (configuration not stated), the melting point is reported as 93.5 to 94.5 °C. `CCC1(C)SC(=NOC(=O)N(C)C(C)=O)N=C1C` (configuration not stated) gave a melting point of 98 to 101 °C. With `Cc1cn(-c2cc(C)c(N)c(C#N)c2)c(C)n1` the melting point was 214 to 217 °C. `Nc1ncccc1NCc1ccc(Oc2ccc(F)cc2)cc1` showed a melting point of 117 to 118 °C. For `O=C1c2ccccc2S(=O)(=O)N1CCCCOc1ccc(OCc2ccccc2)cc1`, the melting point was 82 to 84 °C. Work on `O=C(COc1ccc(Cl)c(Cl)c1)N1CCC2(CC1)Cn1cc([N+](=O)[O-])nc1O2` yielded a melting point of 218 to 220 °C. `COc1ccc(Cl)c2c1[nH]c(=O)n1nc(CO)cc21` showed a melting point of 221 to 222 °C. `COc1ccc(-c2cnc3[nH]cc(C(N)=O)c3n2)cc1OC` gave a melting point of 290 to 292 °C. `O=P(O)(O)Cc1cc(C(F)(F)F)cc(C(F)(F)F)c1` showed a melting point of 206 to 208 °C. With `Cc1ccc(C=CCC(C(=O)C=Cc2ccc(Cl)cc2)c2ccccc2)cc1` (configuration not stated) the melting point was 114 to 118 °C. `CN(O)C(=O)c1ccccc1Nc1c(Cl)cccc1Cl` gave a melting point of 137 to 140 °C. `CC(C)(C)OC(=O)NCCNC(=O)c1ncccc1Oc1ccccc1` gave a melting point of 97 to 98 °C. With `O=S(=O)(NCCc1ccc(C(O)CCCO)cc1)c1ccccc1Cl` (configuration not stated) the melting point was 101 °C. With `O=C(O)Cn1cc(Cl)c(-c2cc(Cl)cc(Cl)c2)n1` the melting point was 182 °C. Work on `COc1ccc(C(=O)CC(C#N)c2ccc3c(c2)OCO3)cc1OC` (configuration not stated) yielded a melting point of 159 to 161 °C. Compound `CC[C@H]1[C@H](O)CN1c1cc2c(cc1F)c(=O)c(C(=O)O)cn2C1CC1` (relative stereo) has a melting point of 250 to 255 °C. Compound `CCCCc1oc2ccccc2c1C(=O)NCc1ccc2c(-c3ccc(Cl)cc3)c(OC(Cc3ccccc3)C(=O)OC)ccc2c1` (configuration not stated) has a melting point of 59 to 62 °C. Work on `O=S(=O)(C(=CN=c1ccc(Br)cn1Cc1ccccc1)S(=O)(=O)c1ccccc1)c1ccccc1` yielded a melting point of 216 to 217 °C. Compound `CC(=O)Oc1ccc(-c2ccc(O)cc2)cc1` has a melting point of 204 to 207 °C. For `CCOC(=O)c1cnn(-c2cc(C)cc(C)c2)c1C#N`, the melting point was 83.5 to 84.5 °C. With `COc1ccc(C(=O)NC(C)(C#N)c2ccccn2)cc1` (configuration not stated) the melting point was 173 °C. With `CS(=O)(=O)c1cccc(-n2c(=O)n(Cc3ccncc3)c(=O)c3cccnc32)c1` the melting point was 254 to 256 °C. Compound `Fc1cccc(F)c1-c1cnnc(-c2ccc(-c3ccc(OC(F)(F)F)cc3)cc2)n1` has a melting point of 159 to 160 °C. `O=C(CBr)c1ccc(OCC(=O)N2CCOCC2)cc1` gave a melting point of 105 to 107 °C. `CCc1[nH]n(C2CCCC2)c2nc(-c3ccccc3C(F)(F)F)nc(=O)c1-2` showed a melting point of 201 to 202 °C. `Cc1ccc2nc(N3CCNCC3)c(=O)n(-c3ccccc3)c2c1` showed a melting point of 166 to 168 °C. In the case of `NCC1CC1CCC(=O)Nc1ccc(NC(=O)CCC2CC2CN)c2c1C(=O)c1ccccc1C2=O` (configuration not stated), the melting point is reported as 208 to 210 °C. `COc1cc(COc2cc(NC(C)=O)c(Cl)cc2C(=O)CCCCCl)cc(OC)c1` gave a melting point of 135 to 137 °C. Compound `O=C(O)c1cnc(NCc2cccs2)nc1-c1ccccc1` has a melting point of 212 to 213 °C. For `COc1cc(I)cc2c(O)c(C(=O)NCc3ccc(Cl)cc3)cnc12`, the melting point was 241 to 243 °C. `CCCC(NS(=O)(=O)c1ccccc1)P(=O)(Oc1ccccc1)Oc1ccccc1` (configuration not stated) showed a melting point of 173 to 175 °C. `COc1cc(-c2csc(N)n2)c(OC)cc1C` gave a melting point of 191 to 192 °C. Compound `CC(C)n1nc(-c2cc(C(C)(C)C)c(O)c(C(C)(C)C)c2)c2cccnc21` has a melting point of 147 °C. In the case of `O=C(O)c1cccc(C(=O)O)c1Nc1cccc(I)c1`, the melting point is reported as 214 to 216 °C. With `CCCCc1cc(=O)c2ccccc2[nH]1` the melting point was 140 °C. Compound `COCc1cnc2c(NC(=O)c3c(Cl)cccc3Cl)cccc2c1N1CCNC1=O` has a melting point of 210 to 212 °C. `N#Cc1c[nH]c(-c2ccc3ccccc3c2)c1` gave a melting point of 200 to 206 °C. Work on `CC(=O)c1cncc(OC2SCC(O)C(O)C2O)c1` (configuration not stated) yielded a melting point of 209 °C. Work on `O=C(O)c1cc2cc(Cl)ccc2nc1N[C@@H](Cc1ccc(OCc2ccccc2)cc1)C(=O)O` yielded a melting point of 169 to 171 °C. With `CCOC(=O)C1=C(C)NC(CSCOC(C)=O)=C(C(=O)OCC)C1c1cccc([N+](=O)[O-])c1` (configuration not stated) the melting point was 118 to 121 °C. Compound `Nc1c(NC(=O)CCl)ccc2c1C(=O)c1ccccc1C2=O` has a melting point of 193 to 194 °C. Work on `Nc1nc2ccccc2c(=O)[nH]1` yielded a melting point of over 300 °C. In the case of `CC(C)=CCn1ncc(-c2ccc(S(C)(=O)=O)cc2)c(-c2ccc(F)cc2)c1=O`, the melting point is reported as 169 to 172 °C. `CC1CC(=O)C1(Cl)CC(Cl)(Cl)Cl` (configuration not stated) gave a melting point of 80 to 81 °C. Compound `CC(C)S(=O)(=O)c1cc(C#N)c(N)c(OCCCS(C)(=O)=O)c1` has a melting point of 142 to 143 °C. With `O=C(O)/C=C/c1ccn(C2CCCCCC2)c1` the melting point was 138 to 140 °C. Compound `CCCC(c1ccc(C)cc1)n1c(C(=O)OC)cnc1S` (configuration not stated) has a melting point of 209 to 211 °C. `CCN(CC)c1ccc(-c2ccc3c(c2)C=C(C(=O)Nc2ccc(CN(C)C4CCOCC4)cc2)CCS3(=O)=O)cc1` showed a melting point of 240 to 246 °C. `O=C(O)c1ccc(NCCc2ccc(F)cc2)cc1` gave a melting point of 161 to 163 °C. Compound `FC(F)(F)CO[Si](c1ccccc1)(c1ccccc1)c1ccccc1` has a melting point of 114 °C. `COC(=O)c1cccc([N+](=O)[O-])c1-c1ccc2ccccc2c1OC` showed a melting point of 139 to 141 °C. `Cc1cc(C)cc(C(=O)N2CCC(N3CCC(OC(=O)c4cc(Cl)cc(Cl)c4)CC3)CC2Cc2ccccc2)c1` (configuration not stated) showed a melting point of 83.3 °C. `CN1CCc2ccc(OCCCCN3CCN(c4cccc(Cl)c4Cl)CC3)cc2NC1=O` gave a melting point of 139 to 140 °C. In the case of `N#CCOc1cccc2c1c1cccc3c1n2C(c1ccccc1)CO3` (configuration not stated), the melting point is reported as 61 °C. With `O=S(=O)(/C=C/c1ccccc1)CS(=O)(=O)/C=C/c1ccccc1` the melting point was 128 to 130 °C. With `COc1cccc2c1C=C(C(=O)O)C(C(F)(F)F)O2` (configuration not stated) the melting point was 204 to 207 °C. With `CCOCc1nc2c(N)nc3ccccc3c2n1NCCC(C)C` the melting point was 129 to 132 °C. Compound `c1ccc2nc(CN(CCN(Cc3ccc4ccccc4n3)Cc3ccc4ccccc4n3)Cc3ccc4ccccc4n3)ccc2c1` has a melting point of 196 to 198 °C. In the case of `Cc1c(C(=O)c2cccc(Cl)c2Cl)c2cccc(Br)c2n1CCCCl`, the melting point is reported as 139 °C. `O=C1Nc2ccc(F)c(F)c2C(=O)N2CC[C@@H]12` showed a melting point of over 250 °C. With `Cc1cc(-c2nc(-c3cccs3)c[nH]2)ccc1O` the melting point was 167 to 172 °C. In the case of `CCOC(=O)c1cc(Br)cc2c(=O)cc(-c3cccc(OCc4ccc5ccccc5c4)c3)oc12`, the melting point is reported as 211 to 213 °C. Work on `CC1=C(C)CCCCCC1` yielded a melting point of 63 to 64 °C. Compound `Cc1cc(-c2nc3ccc(CCN4CCCC4)cc3c(=O)[nH]2)cc(C)n1` has a melting point of 212 to 213 °C. With `CC1Oc2ccccc2CC1NNc1ncnc2c1ncn2C1OC(CO)C(O)C1O` (configuration not stated) the melting point was 90 to 92 °C. For `CCCC(=O)NCc1ccc(C(=O)O)cc1`, the melting point was 186 to 188 °C. For `COCCCn1c(O)nc2ccc(C)cc21`, the melting point was 118 to 120 °C. In the case of `CC(=O)OCCCNc1cc(C)nc2cn[nH]c12`, the melting point is reported as 115 to 119 °C. Compound `CCNC1(C(N)=O)C=C2C(=Nc3ccccc32)C=N1` (configuration not stated) has a melting point of 233 to 236 °C. Compound `COc1ccc2c(c1)OC(=O)N(C1CCCCC1)C2` has a melting point of 76 to 77 °C. For `CN(C)CCNS(=O)(=O)c1ccc(O)cc1`, the melting point was 165 to 168 °C. For `CCOC(=O)c1ccc(C(CCc2cc(Cl)ccc2N2CCCCC2)C(N)=O)cc1` (configuration not stated), the melting point was 95 to 97 °C. Compound `O=c1[nH]c2ccccc2n1CCOC1CCCCO1` (configuration not stated) has a melting point of 115 °C. `O=C(O)/C=C/c1ccc(OCc2cccnc2)cc1` showed a melting point of 228 to 230 °C. Work on `CC(=O)OC1CSC(Oc2ccnc(Br)c2)C(OC(C)=O)C1OC(C)=O` (configuration not stated) yielded a melting point of 162 °C. For `CCC(CC)c1nn(-c2ccc(Cl)cn2)cc1CCCOc1c(C)cccc1CC(=O)O`, the melting point was 106 to 107 °C. Work on `Cc1ccc(S(=O)(=O)C2CCCN(S(=O)(=O)c3ccc(C)cc3)C2)cc1` (configuration not stated) yielded a melting point of 124 to 142 °C. `Fc1ccc(-c2cc(Cl)c3sccc3n2)cc1` gave a melting point of 119 to 121 °C. Work on `CCCc1cnc2c(NC(=O)c3c(Cl)cccc3Cl)cccc2c1-n1ccnc1` yielded a melting point of 160 to 161 °C. `ClCCN1C2C=C(c3ccc4ccccc4c3)CC1CC2` (configuration not stated) showed a melting point of 122 to 123 °C. Compound `COc1c(Br)cc(Br)c2ccc(C=Cc3ccccc3)nc12` has a melting point of 150 to 152 °C. `O=C/C=C/c1c(-c2ccc(F)cc2)n(CCc2ccccc2)c(=O)c2ccccc12` showed a melting point of 133 to 134 °C. `COc1ccc(C2=NN(c3cccc(C(=O)O)c3)C(=O)C(C)(C)C2)cc1OC` gave a melting point of 165 to 167 °C. In the case of `CCCCCC(O)CNCCCCCCNCC(O)CCCCC` (configuration not stated), the melting point is reported as 131 to 134 °C. For `Cn1nc2c(-c3ccc(Cl)cc3Cl)cccc2c1-c1nnco1`, the melting point was 199 to 201 °C. With `COCC(C)N(C(=O)N(CCCl)N=O)C1(O)C(O)C(CO)OC(OCC(C)C)C1O` (configuration not stated) the melting point was 66 to 68 °C. Work on `CCn1ncc2c3onc(-c4cccc(C)c4)c3cnc21` yielded a melting point of 122 to 123 °C. `CN(Cc1ccc(NC(=O)/C=C/c2ccc(-c3ccc(C(C)(C)C)cc3)s2)cc1)C1CCOCC1` showed a melting point of 216 to 220 °C. Work on `O=C(CCC1CCCC1)Nc1ccc(-n2nc(C(F)(F)F)cc2C(F)(F)F)cc1` yielded a melting point of 130 to 132 °C. `O=C(O)C1CCc2ccccc2N1C(=O)CCS` (configuration not stated) showed a melting point of 130 to 132 °C. `N#Cc1ccc(CCC(=O)C2CC2)cc1` gave a melting point of 76 °C. `O=C(NCCOc1ccc(CC(Oc2ccccc2)C(=O)O)cc1Br)c1ccc(-c2ccccn2)cc1` (configuration not stated) showed a melting point of 83 to 84 °C. `CCOC(=O)C1=NOC(c2ccc(NC(=O)c3c(I)cccc3C(=O)NC(C)C)c(C)c2)(C(F)(F)F)C1` (configuration not stated) showed a melting point of 172 to 174 °C.
